Some test systems named below: UO-31 renal; UACC-257 melanoma; OVCAR-4 ovarian; HOP-18 NSCLC; XF 498 CNS; M14 melanoma; COLO 205 colon; TK-10 renal; DU-145 prostate.
Holding throughout (experiment): growth of human tumour cells (NCI), 48 h

Several values for one entry are separate records, joined by “and”; a condition that tells them apart may be missing. Equal entries are not always repeated.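 Briefly, cells in 96-well plates were exposed to five compound concentrations for 48 h, and endpoints were estimated by linear interpolation. Abbreviation: GI50, concentration required for 50% inhibition of growth. TGI marks complete inhibition of growth.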 Activity calls are given as the source filed them. Cut-off read from the data, not from the text of the source: active = GI50 below about 0.43 µM; inactive = the rest.

This note sets out measurements from PubChem BioAssay (NCI).

`C=CC1(C(=O)O)CCC(C(C)(C)C)CC1` (configuration not stated): the TGI with UO-31 renal, in the assay with UACC-257 melanoma, with OVCAR-4 ovarian, in the assay on HOP-18 NSCLC, with XF 498 CNS and in the assay with M14 melanoma was above 100 µM throughout. Also, the TGI in the assay with COLO 205 colon and with TK-10 renal was above 100 µM in each case.
`O=C1OC(CC(=O)c2ccc(Cl)c(Cl)c2)C(Cl)=C1Cl` (configuration not stated): the TGI in the assay with UO-31 renal, in the assay with UACC-257 melanoma, in the assay with OVCAR-4 ovarian, in the assay with HOP-18 NSCLC, in the assay with XF 498 CNS and in the assay on M14 melanoma was above 100 µM throughout. Besides, the TGI in the assay on COLO 205 colon and with TK-10 renal was above 100 µM each time.
On to `CCNC(=O)CCN(C(=O)O)S(=O)(=O)c1ccc(NC(=O)c2ccccc2)cc1`, for which the TGI in the assay on UO-31 renal, with UACC-257 melanoma, in the assay with OVCAR-4 ovarian, with HOP-18 NSCLC, in the assay with XF 498 CNS and in the assay with M14 melanoma was above 100 µM in each case. Moreover, the TGI with COLO 205 colon and in the assay on TK-10 renal was above 100 µM each time.
As for `CC1=C(C(=O)Nc2ccccc2C)C(c2ccc(Cl)c(Cl)c2)C(C(=O)Nc2ccccc2C)=C(C)N1`, the TGI with UO-31 renal was above 100 µM; in the assay on UACC-257 melanoma, 50.7 µM; in the assay with OVCAR-4 ovarian, above 100 µM; with HOP-18 NSCLC it was 69.4 µM; in the assay on XF 498 CNS, 56.4 µM; in the assay on M14 melanoma it was 35.3 µM. Also, the values for the TGI with COLO 205 colon and in the assay on TK-10 renal were 30 µM and above 100 µM, respectively.
As to `Cc1c[nH]c2c(O)cc3c(c12)[C@H](CCl)CN3C(=O)c1cc2cc(NC(=O)Nc3ccc4[nH]c(C(=O)N5C[C@@H](CCl)c6c5cc(O)c5[nH]cc(C)c65)cc4c3)ccc2[nH]1`, the GI50 is 0.0291 µM in the assay on UO-31 renal; 1.27 ng/mL with UACC-257 melanoma; 0.000923 µM with DU-145 prostate; 0.00359 µM in the assay with M14 melanoma; 0.0137 µM in the assay on COLO 205 colon. Also, the TGI in the assay on UACC-257 melanoma was 42.4 µM and 0.00318 µg/mL; with OVCAR-4 ovarian, 48 µM. For the same compound, the outcome in the assay with HOP-18 NSCLC and with XF 498 CNS was inactive.
Take `CCOC(=O)C(N)C[S][Sn]([CH3])([CH3])[Cl]` (configuration not stated): the GI50 in the assay with UO-31 renal, in the assay with UACC-257 melanoma, in the assay with OVCAR-4 ovarian, in the assay with HOP-18 NSCLC, in the assay with XF 498 CNS and with M14 melanoma was above 100 µM throughout. Further, the GI50 in the assay with COLO 205 colon and in the assay with TK-10 renal was above 100 µM each time. For the same compound, the TGI in the assay with UO-31 renal, with UACC-257 melanoma, in the assay with OVCAR-4 ovarian, in the assay with HOP-18 NSCLC, with XF 498 CNS and in the assay on M14 melanoma was above 100 µM throughout. Moreover, the TGI in the assay on COLO 205 colon and with TK-10 renal was above 100 µM in each case.
For the compound `COc1ccccc1N1C(=O)/C(=C/c2ccc(N(CCC#N)CCC#N)cc2C)N=C1c1cc([N+](=O)[O-])ccc1Cl`, the TGI with UO-31 renal was above 100 µM; in the assay on UACC-257 melanoma, above 100 µM; with OVCAR-4 ovarian, 71.7 µM; in the assay on HOP-18 NSCLC, above 100 µM; with XF 498 CNS, above 100 µM; in the assay on M14 melanoma, above 100 µM. In addition, the TGI with COLO 205 colon and in the assay on TK-10 renal was above 100 µM each time.
As for `CC(C)CS(=O)(=O)/C(=C(\c1ccc(Br)cc1)S(=O)(=O)CC(C)C)c1ccc(Br)cc1`, the TGI in the assay on UO-31 renal, in the assay on UACC-257 melanoma, in the assay with OVCAR-4 ovarian, in the assay on HOP-18 NSCLC, with XF 498 CNS and in the assay on M14 melanoma was above 100 µM in each case. The TGI in the assay on COLO 205 colon and with TK-10 renal was above 100 µM each time.
Regarding `COc1ccc(NC(=O)C(=O)C(C(=O)c2ccccc2)C2OC(=O)c3ccccc32)c([N+](=O)[O-])c1` (configuration not stated), the TGI with UO-31 renal, in the assay on UACC-257 melanoma, with OVCAR-4 ovarian, in the assay with HOP-18 NSCLC, with XF 498 CNS and in the assay with M14 melanoma was above 100 µM each time. Further, the TGI with COLO 205 colon and in the assay with TK-10 renal was above 100 µM throughout.
Regarding `NC(=O)C(=Cc1ccc(C(O)P(=O)(O)O)cc1)C(N)=O` (configuration not stated), the TGI with UO-31 renal, in the assay with UACC-257 melanoma, in the assay on OVCAR-4 ovarian, with HOP-18 NSCLC, in the assay on XF 498 CNS and in the assay on M14 melanoma was above 100 µM in each case. The TGI in the assay with COLO 205 colon and in the assay on TK-10 renal was above 100 µM throughout.
With `CCCCc1c2c(nc3c1CCC/C3=C\c1ccccc1)C(=O)CCC2`, the TGI came to 61.8 µM with UO-31 renal; 44.8 µM with UACC-257 melanoma; 67.9 µM with OVCAR-4 ovarian; 79 µM in the assay on HOP-18 NSCLC; 33.2 µM with XF 498 CNS; 41.9 µM in the assay with M14 melanoma. Moreover, the TGI was found to be 48.6 µM in the assay on COLO 205 colon and 72.4 µM in the assay with TK-10 renal.
